Measurements from ChEMBL document CHEMBL4371024, “Synthesis and characterization of pyridoxine, nicotine and nicotinamide salts of dithiophosphoric acids as antibacterial agents against resistant wound infection” (Bioorg Med Chem, 2019).
pIC50: −log10 of the molar value. In brackets after ≈: the same amount, converted by molar mass. Activity calls are given as the source filed them. No cut-off for these calls is given here.

How the values were obtained:
Staphylococcus aureus [1] = assay: Antibacterial activity against Staphylococcus aureus ATCC 29213 after 24 hrs by broth dilution method; assay type: functional; details: ATCC 29213, 24 h
[2] = tested on: Staphylococcus epidermidis; assay: Antibacterial activity against Staphylococcus epidermidis after 24 hrs by broth dilution method; assay type: functional
Pseudomonas aeruginosa [3] = assay: Antibacterial activity against Pseudomonas aeruginosa ATCC 27853 after 24 hrs by broth dilution method; assay type: functional; details: ATCC 27853, 24 h
Klebsiella pneumoniae [4] = assay: Antibacterial activity against Klebsiella pneumoniae after 24 hrs by broth dilution method; assay type: functional
Enterobacter cloacae = assay: Antibacterial activity against multidrug-resistant and sensitive Enterobacter cloacae after 24 hrs by broth dilution method; assay type: functional
Erythrocyte = assay: Hemolytic activity in human erythrocytes at >100 uM; assay type: ADME, cell-based
Staphylococcus aureus [5] = assay: Ratio of MBC to MIC against Staphylococcus aureus ATCC 29213; assay type: functional
Pseudomonas aeruginosa [6] = assay: Drug interaction with Pseudomonas aeruginosa cellular surface assessed as decrease in zeta potential at 1 mM treated for 1 hr followed by washing and measured by dynamic light scattering method; assay type: functional
Staphylococcus aureus [7] = assay: Antibacterial activity against methicillin, cefoxytin, levfloxacin-resistant and erythromycin, clindamycin-senstitive Staphylococcus aureus after 24 hrs by broth dilution method; assay type: functional
Staphylococcus aureus [8] = assay: Drug interaction with Staphylococcus aureus cellular surface assessed as decrease in zeta potential at 1 mM treated for 1 hr followed by washing and measured by dynamic light scattering method; assay type: functional
Staphylococcus aureus [9] = assay: Antibacterial activity against multidrug-resistant Staphylococcus aureus after 24 hrs by broth dilution method; assay type: functional
Klebsiella pneumoniae [10] = assay: Ratio of MBC to MIC against Klebsiella pneumoniae; assay type: functional
[11] = Cytotoxicity against human HSF cells after 72 hrs by MTT assay; assay type: cell-based
Pseudomonas aeruginosa [12] = assay: Bactericidal activity against Pseudomonas aeruginosa ATCC 27853 incubated for 24 hrs followed by replating on Mueller-Hinton agar and further incubated for 24 hrs; assay type: functional; details: ATCC 27853, 24 h
Staphylococcus aureus [13] = assay: Antibacterial activity against methicillin, cefoxytin-resistant and levofloxacin, erythromycin, clindamycin-senstitive Staphylococcus aureus after 24 hrs by broth dilution method; assay type: functional
[14] = Aggregation property of the compound in DMEM culture medium at 1 mM after 1 hr by dynamic light scattering method; assay type: physicochemical; details: 1000 µM
[15] = Cytotoxicity against human HSF cells after 24 hrs by MTT assay; assay type: cell-based
Klebsiella pneumoniae [16] = assay: Antibacterial activity against multidrug-sensitive Klebsiella pneumoniae after 24 hrs by broth dilution method; assay type: functional
Pseudomonas aeruginosa [17] = assay: Antibacterial activity against multidrug-sensitive Pseudomonas aeruginosa after 24 hrs by broth dilution method; assay type: functional
Staphylococcus aureus [18] = assay: Bactericidal activity against Staphylococcus aureus ATCC 29213 incubated for 24 hrs followed by replating on Mueller-Hinton agar and further incubated for 24 hrs; assay type: functional; details: ATCC 29213, 24 h
Pseudomonas aeruginosa [19] = assay: Ratio of MBC to MIC against Pseudomonas aeruginosa ATCC 27853; assay type: functional
Pseudomonas aeruginosa [20] = assay: Antibacterial activity against multidrug-resistant Pseudomonas aeruginosa after 24 hrs by broth dilution method; assay type: functional
Klebsiella pneumoniae [21] = assay: Bactericidal activity against Klebsiella pneumoniae incubated for 24 hrs followed by replating on Mueller-Hinton agar and further incubated for 24 hrs; assay type: functional
Pseudomonas aeruginosa [22] = assay: Antibacterial activity against ciprofloxacin-resistant and multidrug-sensitive Pseudomonas aeruginosa after 24 hrs by broth dilution method; assay type: functional
[23] = Aggregation property of the compound assessed as mean hydrodynamic diameter at 1 mM after 1 hr by dynamic light scattering method; assay type: physicochemical; details: 1000 µM
Escherichia coli = assay: Antibacterial activity against multidrug-resistant and sensitive Escherichia coli after 24 hrs by broth dilution method; assay type: functional
Pseudomonas aeruginosa [24] = assay: Antibacterial activity against ciprofloxacin, imipenem, meronem-resistant and cefepime, piperacillin-tazobactam-sensitive Pseudomonas aeruginosa after 24 hrs by broth dilution method; assay type: functional
Staphylococcus aureus [25] = assay: Inhibition of extracellular component secretion and matrix formation in Staphylococcus aureus assessed as induction of bacterial aggregation at 1 uM by scanning electron microscopy; assay type: functional, organism-based
Staphylococcus aureus [26] = assay: Inhibition of extracellular component secretion and matrix formation in Staphylococcus aureus assessed as uncovering of bacterial cells at 1 uM by scanning electron microscopy; assay type: functional, organism-based
Pseudomonas aeruginosa [27] = assay: Inhibition of extracellular component secretion and matrix formation in Pseudomonas aeruginosa assessed as uncovering bacterial cells at 1 uM by scanning electron microscopy; assay type: functional, organism-based
Pseudomonas aeruginosa [28] = assay: Inhibition of extracellular component secretion and matrix formation in Pseudomonas aeruginosa assessed as induction of bacterial aggregation at 1 uM by scanning electron microscopy; assay type: functional, organism-based

Question: With `CC1(C)[C@H]2CC[C@](C)(C2)[C@H]1OP(=S)(S)O[C@H]1C(C)(C)[C@H]2CC[C@]1(C)C2` as the compound, how does the MIC (Staphylococcus aureus [1]) read?
Answer: Its MIC is 240 µM (≈ 96.6 µg/mL).

Question: And the MIC [2]?
Answer: The MIC was 240 µM (≈ 96.6 µg/mL).

Question: And the MIC (Pseudomonas aeruginosa [3])?
Answer: Its MIC is 1940 µM (≈ 781 µg/mL).

Question: What about the MIC (Klebsiella pneumoniae [4]) of the same compound?
Answer: Its MIC is 1940 µM (≈ 781 µg/mL).

Question: What does the source list for `CC(C)[C@@H]1CC[C@@H](C)C[C@H]1OP(=S)(S)O[C@@H]1C[C@H](C)CC[C@H]1C(C)C.Cc1ncc(CO)c(CO)c1O` [listing 1 of 2 here]?
Answer: MIC (Enterobacter cloacae): 323 µM; Activity (Erythrocyte): Toxic; Ratio (Staphylococcus aureus [5]): 2; fold change (FC) (Pseudomonas aeruginosa [6]): 1.2; MIC (Staphylococcus aureus [7]): 20 µM; fold change (FC) (Staphylococcus aureus [8]): 1.2; MIC (Staphylococcus aureus [1]): 20 µM; MIC (Staphylococcus aureus [9]): 20 µM; Ratio (Klebsiella pneumoniae [10]): 2; pIC50 [11]: 4.31; MIC [2]: 10 µM; MBC (Pseudomonas aeruginosa [12]): 320 µM; MIC (Staphylococcus aureus [13]): 20 µM; Activity [14]: Active; pIC50 [15]: 4.04; MIC (Klebsiella pneumoniae [16]): 323 µM; MIC (Pseudomonas aeruginosa [17]): 323 to 647 µM; MIC (Pseudomonas aeruginosa [3]): 320 µM; MBC (Staphylococcus aureus [18]): 40 µM; Ratio (Pseudomonas aeruginosa [19]): 2; MIC (Pseudomonas aeruginosa [20]): 323 µM; MBC (Klebsiella pneumoniae [21]): 640 µM; MIC (Pseudomonas aeruginosa [22]): 323 µM; Activity [23]: 108.9 nm; MIC (Escherichia coli): 323 µM; MIC (Klebsiella pneumoniae [4]): 320 µM; MIC (Pseudomonas aeruginosa [24]): 323 µM

Question: With `CC(C)[C@@H]1CC[C@@H](C)C[C@H]1OP(=S)(S)O[C@@H]1C[C@H](C)CC[C@H]1C(C)C.Cc1ncc(CO)c(CO)c1O` [listing 2 of 2 here] as the compound, how does the Activity (Staphylococcus aureus [25]) read?
Answer: The Activity was “Active”.

Question: And the Activity (Staphylococcus aureus [26])?
Answer: The Activity was “Active”.

Question: What about the Activity (Pseudomonas aeruginosa [27]) of the same compound?
Answer: The Activity was “Active”.

Question: What about the Activity (Pseudomonas aeruginosa [28]) of the same compound?
Answer: Its Activity is “Active”.

Question: Which MIC (Staphylococcus aureus [1]) does the source give for `C[C@@H]1[C@@H](OP(=S)(S)O[C@H]2C[C@H]3C[C@@H]([C@@H]2C)C3(C)C)C[C@H]2C[C@@H]1C2(C)C.NC(=O)c1cccnc1` here?
Answer: Its MIC is 300 µM.

Question: And the MIC [2]?
Answer: The MIC was 300 µM.

Question: And the MIC (Pseudomonas aeruginosa [3])?
Answer: Its MIC is 4780 µM.

Question: What about the MIC (Klebsiella pneumoniae [4]) of the same compound?
Answer: The MIC was 4780 µM.

Question: With `CC(C)[C@@H]1CC[C@@H](C)C[C@H]1OP(=S)(S)O[C@@H]1C[C@H](C)CC[C@H]1C(C)C.CN1CCC[C@H]1c1cccnc1` as the compound, how does the MIC (Enterobacter cloacae) read?
Answer: The MIC was 360 µM.

Question: And the Activity (Erythrocyte)?
Answer: Its Activity is “Toxic”.

Question: What about the Ratio (Staphylococcus aureus [5]) of the same compound?
Answer: The Ratio was 1.

Question: What about the “fold change (FC)” value (Pseudomonas aeruginosa [6]) of the same compound?
Answer: The value was 1.2.

Question: And the MIC (Staphylococcus aureus [7])?
Answer: The MIC was 11 µM.

Question: What about the “fold change (FC)” value (Staphylococcus aureus [8]) of the same compound?
Answer: Its value is 1.2.

Question: What about the MIC (Staphylococcus aureus [1]) of the same compound?
Answer: The MIC was 20 µM.

Question: And the MIC (Staphylococcus aureus [9])?
Answer: The MIC was 23 µM.

Question: And the Ratio (Klebsiella pneumoniae [10])?
Answer: The Ratio was 1.

Question: And the pIC50 [11]?
Answer: The pIC50 was 4.24.

Question: What about the MIC [2] of the same compound?
Answer: Its MIC is 20 µM.

Question: And the MBC (Pseudomonas aeruginosa [12])?
Answer: The MBC was 320 µM.

Question: What about the MIC (Staphylococcus aureus [13]) of the same compound?
Answer: Its MIC is 11 µM.

Question: What about the Activity [14] of the same compound?
Answer: The Activity was “Active”.

Question: And the pIC50 [15]?
Answer: The pIC50 was 4.09.

Question: And the MIC (Klebsiella pneumoniae [16])?
Answer: The MIC was 360 µM.

Question: What about the MIC (Pseudomonas aeruginosa [17]) of the same compound?
Answer: Its MIC is 360 µM.

Question: What about the MIC (Pseudomonas aeruginosa [3]) of the same compound?
Answer: The MIC was 320 µM.

Question: What about the MBC (Staphylococcus aureus [18]) of the same compound?
Answer: The MBC was 20 µM.

Question: What about the Ratio (Pseudomonas aeruginosa [19]) of the same compound?
Answer: The Ratio was 1.

Question: What about the MIC (Pseudomonas aeruginosa [20]) of the same compound?
Answer: Its MIC is 360 µM.

Question: And the MBC (Klebsiella pneumoniae [21])?
Answer: The MBC was 640 µM.

Question: What about the MIC (Pseudomonas aeruginosa [22]) of the same compound?
Answer: The MIC was 360 µM.

Question: And the Activity [23]?
Answer: The Activity was 141.7 nm.

Question: What about the MIC (Escherichia coli) of the same compound?
Answer: Its MIC is 360 µM.

Question: What about the MIC (Klebsiella pneumoniae [4]) of the same compound?
Answer: Its MIC is 320 µM.

Question: What about the MIC (Pseudomonas aeruginosa [24]) of the same compound?
Answer: The MIC was 360 µM.

Question: Which MIC (Staphylococcus aureus [1]) does the source give for `CC1(C)[C@H]2CC[C@]1(C)[C@H](OP(=S)(S)O[C@@H]1C[C@@H]3CC[C@@]1(C)C3(C)C)C2` here?
Answer: The MIC was 6210 µM (≈ 2500 µg/mL).

Question: What about the MIC [2] of the same compound?
Answer: The MIC was 6210 µM (≈ 2500 µg/mL).

Question: And the MIC (Pseudomonas aeruginosa [3])?
Answer: Its MIC is 6210 µM (≈ 2500 µg/mL).

Question: What about the MIC (Klebsiella pneumoniae [4]) of the same compound?
Answer: Its MIC is 6210 µM (≈ 2500 µg/mL).

Question: For `CN1CCC[C@H]1c1cccnc1.C[C@@H]1[C@@H](OP(=S)(S)O[C@H]2C[C@H]3C[C@@H]([C@@H]2C)C3(C)C)C[C@H]2C[C@@H]1C2(C)C`, which MIC (Staphylococcus aureus [1]) is on record?
Answer: Its MIC is 20 µM.

Question: And the MIC [2]?
Answer: Its MIC is 20 µM.

Question: And the MIC (Pseudomonas aeruginosa [3])?
Answer: The MIC was 320 µM.

Question: What about the MIC (Klebsiella pneumoniae [4]) of the same compound?
Answer: Its MIC is 320 µM.

Question: What does the source list for `CCCCOP(=S)(S)OCCCC.CN1CCC[C@H]1c1cccnc1`?
Answer: MIC (Staphylococcus aureus [1]): 1810 µM; MIC [2]: 1810 µM; MIC (Pseudomonas aeruginosa [3]): 3630 µM; MIC (Klebsiella pneumoniae [4]): 3630 µM

Question: Which MIC (Staphylococcus aureus [1]) does the source give for `CN1CCC[C@H]1c1cccnc1.Cc1ccc(C(C)C)c(OP(=S)(S)Oc2cc(C)ccc2C(C)C)c1` here?
Answer: Its MIC is 320 µM.

Question: What about the MIC [2] of the same compound?
Answer: Its MIC is 320 µM.

Question: What about the MIC (Pseudomonas aeruginosa [3]) of the same compound?
Answer: Its MIC is 320 µM.

Question: And the MIC (Klebsiella pneumoniae [4])?
Answer: Its MIC is 2530 µM.

Question: Which results are given for `C[C@@H]1[C@@H](OP(=S)(S)O[C@H]2C[C@H]3C[C@@H]([C@@H]2C)C3(C)C)C[C@H]2C[C@@H]1C2(C)C.Cc1ncc(CO)c(CO)c1O`?
Answer: MIC (Staphylococcus aureus [1]): 20 µM; MIC [2]: 20 µM; MIC (Pseudomonas aeruginosa [3]): 320 µM; MIC (Klebsiella pneumoniae [4]): 320 µM

Question: Which MIC (Staphylococcus aureus [1]) does the source give for `CC(C)[C@H]1CC[C@H](C)C[C@@H]1OP(=S)(S)O[C@H]1C[C@@H](C)CC[C@@H]1C(C)C.Cc1ncc(CO)c(CO)c1O` here?
Answer: The MIC was 40 µM.

Question: And the MIC [2]?
Answer: The MIC was 10 µM.

Question: And the MIC (Pseudomonas aeruginosa [3])?
Answer: Its MIC is 320 µM.

Question: What about the MIC (Klebsiella pneumoniae [4]) of the same compound?
Answer: Its MIC is 320 µM.
